According to publication PMC6979384, “Characterization of the plant homeodomain (PHD) reader family for their histone tail interactions” (Epigenetics & Chromatin, 2020):
Where no end group is shown, it is not given here. [ ]: non-standard residue; d: D form. Lys(Me3) = C[N+](C)(C)CCCC[C@H](N)C(=O)O; Lys(Me2) = CN(C)CCCC[C@H](N)C(=O)O

Tests used:
Assay in all cases: Histone peptide microarray
Type in all cases: binding, human
CHD5 (PCC) = settings: histone peptide array, GST-tagged reader; PCC = PHD + Dual Chromodomain; arrays performed twice, n of 4
Summary of the method: (§1)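 Each reader, produced as a GST fusion and purified, was tested at 0.5 μM on synthetic histone peptides (293 in total) carrying single or combinatorial marks. Intensities averaged over four replicates.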

KDM5B (3) = settings: histone peptide array, GST-tagged reader; arrays performed twice, n of 4
Summary of the method: as §1

PHRF1 (RP) = settings: histone peptide array, GST-tagged reader; arrays performed twice, n of 4
Summary of the method: as §1

KDM5A (3) = settings: histone peptide array, GST-tagged reader; arrays performed twice, n of 4
Summary of the method: as §1

DPF2 (PPC2W2) = settings: histone peptide array, GST-tagged reader; PPC2W2 = Dual PHD + C2W2-type Zn-finger; arrays performed twice, n of 4
Summary of the method: as §1

AIRE (PP) = settings: histone peptide array, GST-tagged reader; arrays performed twice, n of 4
Summary of the method: as §1

PHF8 = settings: histone peptide array, GST-tagged reader; arrays performed twice, n of 4
Summary of the method: as §1

DIDO1 = settings: histone peptide array, GST-tagged reader; arrays performed twice, n of 4
Summary of the method: as §1

BAZ2B = settings: histone peptide array, GST-tagged reader; arrays performed twice, n of 4
Summary of the method: as §1

ING1 = settings: histone peptide array, GST-tagged reader; arrays performed twice, n of 4
Summary of the method: as §1

BPTF (PB) = settings: histone peptide array, GST-tagged reader; PB = PHD + Bromodomain; arrays performed twice, n of 4
Summary of the method: as §1

KDM7A = settings: histone peptide array, GST-tagged reader; arrays performed twice, n of 4
Summary of the method: as §1

ING2 = settings: histone peptide array, GST-tagged reader; arrays performed twice, n of 4
Summary of the method: as §1

MORC3 (CW) = settings: histone peptide array, GST-tagged reader; CW = CW-type Zn-finger; arrays performed twice, n of 4
Summary of the method: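 Binding read as mean relative signal from 4 replicates; microarray held 293 synthetic histone peptides with single or combinatorial PTMs. Each GST-tagged PHD reader was applied at 0.5 μM using the optimized Petell protocol.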

PHF23 = settings: histone peptide array, GST-tagged reader; arrays performed twice, n of 4
Summary of the method: as §1

SP140L = settings: histone peptide array, GST-tagged reader; arrays performed twice, n of 4
Summary of the method: as §1

ING5 = settings: histone peptide array, GST-tagged reader; arrays performed twice, n of 4
Summary of the method: as §1

TRIM66 (PB) = settings: histone peptide array, GST-tagged reader; PB = PHD + Bromodomain; arrays performed twice, n of 4
Summary of the method: as §1

KDM5A (1) = settings: histone peptide array, GST-tagged reader; arrays performed twice, n of 4
Summary of the method: as §1

CHD5 (PPCC) = settings: histone peptide array, GST-tagged reader; PPCC = Dual PHD + Dual Chromodomain; arrays performed twice, n of 4
Summary of the method: as §1

ING4 = settings: histone peptide array, GST-tagged reader; arrays performed twice, n of 4
Summary of the method: as §1

KDM5B (1) = settings: histone peptide array, GST-tagged reader; arrays performed twice, n of 4
Summary of the method: as §1

RAG2 = settings: histone peptide array, GST-tagged reader; arrays performed twice, n of 4
Summary of the method: as §1

PHF13 = settings: histone peptide array, GST-tagged reader; arrays performed twice, n of 4
Summary of the method: as §1

PHF21A = settings: histone peptide array, GST-tagged reader; arrays performed twice, n of 4
Summary of the method: as §1

CHD4 (PPCC) = settings: histone peptide array, GST-tagged reader; PPCC = Dual PHD + Dual Chromodomain; arrays performed twice, n of 4
Summary of the method: as §1

PHF2 = settings: histone peptide array, GST-tagged reader; arrays performed twice, n of 4
Summary of the method: as §1

TAF3 = settings: histone peptide array, GST-tagged reader; arrays performed twice, n of 4
Summary of the method: as §1

MLL5 = settings: histone peptide array, GST-tagged reader; arrays performed twice, n of 4
Summary of the method: as §1

KDM4C (TTP) = settings: histone peptide array, GST-tagged reader; TTP = Tandem Tudor domain + PHD; arrays performed twice, n of 4
Summary of the method: as §1

ING3 = settings: histone peptide array, GST-tagged reader; arrays performed twice, n of 4
Summary of the method: as §1

Row | Substance | Array Heatmap signal, CHD5 (PCC) (CHD5 (PCC)) | Array Heatmap signal, KDM5B (3) (KDM5B (3)) | Array Heatmap signal, PHRF1 (RP) (PHRF1 (RP)) | Array Heatmap signal, KDM5A (3) (KDM5A (3)) | Array Heatmap signal, DPF2 (PPC2W2) (DPF2 (PPC2W2)) | Array Heatmap signal, AIRE (PP) (AIRE (PP)) | Array Heatmap signal, PHF8 (PHF8) | Array Heatmap signal, DIDO1 (DIDO1) | Array Heatmap signal, BAZ2B (BAZ2B) | Array Heatmap signal, ING1 (ING1) | Array Heatmap signal, BPTF (PB) (BPTF (PB)) | Array Heatmap signal, KDM7A (KDM7A) | Array Heatmap signal, ING2 (ING2) | Array Heatmap signal, MORC3 (CW) (MORC3 (CW)) | Array Heatmap signal, PHF23 (PHF23) | Array Heatmap signal, SP140L (SP140L) | Array Heatmap signal, ING5 (ING5) | Array Heatmap signal, TRIM66 (PB) (TRIM66 (PB)) | Array Heatmap signal, KDM5A (1) (KDM5A (1)) | Array Heatmap signal, CHD5 (PPCC) (CHD5 (PPCC)) | further results
1 | H3.3K36ac (27-45): H3.3 27-45 (KSAPSTGGVK(Ac)KPHRYRPGT; UniProt P84243 28-46, looked up, fragment) | 0.818 | 0.5076 | 0.3938 | 0.4209 | 0.6599 | 0.5459 | 0.3248 | 0.652 | 0.4933 | 0.4834 | 0.3342 | 0.4861 | 0.5814 | 0.2989 | 0.4952 | 0.378 | 0.3709 | 0.5797 | 0.4872 | 0.5516 | Array Heatmap signal, ING4 (ING4): 0.4648; Array Heatmap signal, KDM5B (1) (KDM5B (1)): 0.6658; Array Heatmap signal, RAG2 (RAG2): 0.2614; Array Heatmap signal, PHF13 (PHF13): 0.6099; Array Heatmap signal, PHF21A (PHF21A): 0.4713; Array Heatmap signal, CHD4 (PPCC) (CHD4 (PPCC)): 0.5592; Array Heatmap signal, PHF2 (PHF2): 0.4404; Array Heatmap signal, TAF3 (TAF3): 0.2777; Array Heatmap signal, MLL5 (MLL5): 0.5589; Array Heatmap signal, KDM4C (TTP) (KDM4C (TTP)): 0.5383; Array Heatmap signal, ING3 (ING3): 0.4435
2 | H3.3K36me2 (27-45): H3.3 27-45 (KSAPSTGGV[Lys(Me2)]KPHRYRPGT; UniProt P84243 28-46, looked up, fragment) | 0.8212 | 0.5383 | 0.4622 | 0.4963 | 0.6778 | 0.4867 | 0.3824 | 0.7878 | 0.4965 | 0.5396 | 0.3735 | 0.3737 | 0.5971 | 0.4027 | 0.5877 | 0.3879 | 0.3908 | 0.6104 | 0.505 | 0.6024 | Array Heatmap signal, ING4 (ING4): 0.4773; Array Heatmap signal, KDM5B (1) (KDM5B (1)): 0.6701; Array Heatmap signal, RAG2 (RAG2): 0.3087; Array Heatmap signal, PHF13 (PHF13): 0.6587; Array Heatmap signal, PHF21A (PHF21A): 0.4763; Array Heatmap signal, CHD4 (PPCC) (CHD4 (PPCC)): 0.5698; Array Heatmap signal, PHF2 (PHF2): 0.5053; Array Heatmap signal, TAF3 (TAF3): 0.2867; Array Heatmap signal, MLL5 (MLL5): 0.5651; Array Heatmap signal, KDM4C (TTP) (KDM4C (TTP)): 0.5418; Array Heatmap signal, ING3 (ING3): 0.5215
3 | H3.3K36me3 (27-45): H3.3 27-45 (KSAPSTGGV[Lys(Me3)]KPHRYRPGT; UniProt P84243 28-46, looked up, fragment) | 0.837 | 0.5477 | 0.4414 | 0.4596 | 0.6714 | 0.5852 | 0.3825 | 0.6308 | 0.5018 | 0.5245 | 0.3644 | 0.4319 | 0.6059 | 0.4025 | 0.5271 | 0.3873 | 0.3836 | 0.5777 | 0.5417 | 0.5971 | Array Heatmap signal, ING4 (ING4): 0.493; Array Heatmap signal, KDM5B (1) (KDM5B (1)): 0.6389; Array Heatmap signal, RAG2 (RAG2): 0.254; Array Heatmap signal, PHF13 (PHF13): 0.6344; Array Heatmap signal, PHF21A (PHF21A): 0.5086; Array Heatmap signal, CHD4 (PPCC) (CHD4 (PPCC)): 0.6082; Array Heatmap signal, PHF2 (PHF2): 0.459; Array Heatmap signal, TAF3 (TAF3): 0.2966; Array Heatmap signal, MLL5 (MLL5): 0.5409; Array Heatmap signal, KDM4C (TTP) (KDM4C (TTP)): 0.5574; Array Heatmap signal, ING3 (ING3): 0.4806
